Source: patent US20240239796A1, “CRYSTALLINE POLYMORPHS OF EPIDERMAL GROWTH FACTOR RECEPTOR INHIBITOR, AND COMPOSITIONS AND METHODS THEREOF” (Crimson BioPharm Inc., priority 2022, published 2024)

Assay: Form conversion on heating / desolvation (XRPD, FIG. 5, FIG. 8)
Assay type: physicochemical
Conditions: desolvation at 170° C.

C=CC(=O)Nc1cc(Nc2nccc(-n3ccc4cccnc43)n2)c(OC)cc1N(C)CCN(C)C.Cc1ccc(S(=O)(=O)O)cc1 [Form II, N-(5-((4-(1H-pyrrolo[2,3-b]pyridin-1-yl)pyrimidin-2-yl)amino)-2-((2-(dimethylamino)ethyl)(methyl)amino)-4-methoxyphenyl)acrylamide tosylate salt]
form conversion after desolvation: transform to crystalline Form III
